Here are results for 1 compound from ChEMBL document CHEMBL3832052.

The nature of this data set: clinical. The conditions noted are these: human, in vivo, po.

Broadly, the Tmax is the time from dosing to the highest level. Take `Cc1cc(NS(=O)(=O)c2ccc(N)cc2)no1` [SULFAMETHOXAZOLE]: the Tmax was 1 to 4 h.
